Broadly, the IC50 is the midpoint of a concentration-inhibition curve. Read a low IC50 as higher potency.

Experimental findings from patent US8980902B2, “Poly (ADP-ribose) polymerase (PARP) inhibitors” (Takeda Pharmaceutical Company Limited, priority 2009, dated 2015) are described below.

Where only a bound is given, the exact number is not on record here.

The target in one assay is T1, PARP (Homo sapiens, UniProt P09874).
T1 construct: purchased Trevigen 4684-096-01 (enzyme); kit 4684-096-K HT
As to the kind of experiment: PARP ELISA (ELISA-based colorimetric PARP/Apoptosis Assay kit), inhibition of PARP catalytic activity. Format: biochemical. The following applies: pIC50 = -log10 IC50 (molar); 0.1 nM PARP stock, 100 μM NAD+ stock with activated DNA, 10 min catalysis. As for the experimental part:
Inhibition Constant (IC50) from PARP ELISA
Inhibition of PARP catalytic activity was determined by use of an ELISA-based colorimetric PARP/Apoptosis Assay kit (part number 4684-096-K HT, Trevigen). To each histone coated well in the 96-well plate supplied by the manufacturer (part number 4677-096-P) is added 39 μL of PARP buffer (part number 4671-096-02) and 1 μL of test compound dissolved in DMSO (diluted serially 3-fold 11 times). After mixing, 5 μL of 0.1 nM PARP (part number 4684-096-01) is added and the solution allowed to stand at ambient temperature for 10 minutes. PARP catalysis is initiated with the addition of 5 μL of 100 μM β-nicotinamide adenine dinucleotide (NAD+) (part number 4684-096-02) with activated DNA (part number 4671-096-06). After 10 minutes of catalysis the reaction is quenched by solvent aspiration followed by irrigation of the assay wells 4 times with phosphate buffered saline (PBS) containing 0.1% t-octylphenoxypolyethoxyethanol (Triton® X-100). Mouse Anti-poly ADP ribose (PAR) monoclonal antibody, goat antimouse immunoglobulin G (IgG)-horse radish peroxidase (HRP) conjugate and HRP substrate are added according to the manufacture's specifications to generate a colorimetric signal proportional to PARP catalytic activity. An IC50 for the test compound is calculated from the equation Absorbance=(Amax−background)/(1+([cmpd]/IC50)^n)+background fit to the 12 point test compound concentration gradient via nonlinear least squares.
(§1) Here, pIC50=−log10 IC50, where IC50 is the molar concentration of the compound at 50% inhibition.
Background: ELISA stands for enzyme-linked immunosorbent assay.

The test system of the next assay is Jurkat cell line. The assay can be described thus: PARP cellular chemopotentiation assay (MTS viability, with and without Temozolomide). The note with it: Chemopotentiation factor: ratio of EC50 for cell viability without and with 100 μM TMZ, Jurkat cells, 96 hours of treatment. In kind it is cell-based. As for the experimental part: Potentiation Factor (PF50) Determination from PARP Cellular Chemopotentiation Assay
Jurkat cell line was maintained according to the supplier (American Type Culture Collection (Rockville, Md.)). Cells were seeded in 96-well tissue culture microplates at 10,000 cells per well and cultured for 24 hours prior to addition of compounds, TMZ (Temozolomide) or DMSO (dimethylsulfoxide) vehicle. After 96 hours of treatment, the conversion of MTS ([3-(4,5-dimethylthiazol-2-yl)-5-(3-carboxymethoxyphenyl)-2-(4-sulfophenyl)-2H-tetrazolium, inner salt], Promega, Madison, Wis.) by metabolically active cells was determined through measuring the OD490 nm with a Spectramax microplate reader (Molecular Devices, San Diego, Calif.). To generate concentration-response curves, cells were treated in duplicate with a range of serial compound dilutions (final DMSO concentration was 0.5%) in the absence or presence of 100 μM TMZ chemoreagent. The percentage of viable cells per well was calculated by correction for background and normalizing against DMSO-treated cells. EC50 values for inhibition of cell viability were calculated using XLfit4 MicroSoft Excel curve-fitting software. Chemopotentiation factor PF50 was calculated as the ratio of EC50 values of cells co-treated without and with TMZ, respectively.
as §1

T1 sequence (P09874 whole entry): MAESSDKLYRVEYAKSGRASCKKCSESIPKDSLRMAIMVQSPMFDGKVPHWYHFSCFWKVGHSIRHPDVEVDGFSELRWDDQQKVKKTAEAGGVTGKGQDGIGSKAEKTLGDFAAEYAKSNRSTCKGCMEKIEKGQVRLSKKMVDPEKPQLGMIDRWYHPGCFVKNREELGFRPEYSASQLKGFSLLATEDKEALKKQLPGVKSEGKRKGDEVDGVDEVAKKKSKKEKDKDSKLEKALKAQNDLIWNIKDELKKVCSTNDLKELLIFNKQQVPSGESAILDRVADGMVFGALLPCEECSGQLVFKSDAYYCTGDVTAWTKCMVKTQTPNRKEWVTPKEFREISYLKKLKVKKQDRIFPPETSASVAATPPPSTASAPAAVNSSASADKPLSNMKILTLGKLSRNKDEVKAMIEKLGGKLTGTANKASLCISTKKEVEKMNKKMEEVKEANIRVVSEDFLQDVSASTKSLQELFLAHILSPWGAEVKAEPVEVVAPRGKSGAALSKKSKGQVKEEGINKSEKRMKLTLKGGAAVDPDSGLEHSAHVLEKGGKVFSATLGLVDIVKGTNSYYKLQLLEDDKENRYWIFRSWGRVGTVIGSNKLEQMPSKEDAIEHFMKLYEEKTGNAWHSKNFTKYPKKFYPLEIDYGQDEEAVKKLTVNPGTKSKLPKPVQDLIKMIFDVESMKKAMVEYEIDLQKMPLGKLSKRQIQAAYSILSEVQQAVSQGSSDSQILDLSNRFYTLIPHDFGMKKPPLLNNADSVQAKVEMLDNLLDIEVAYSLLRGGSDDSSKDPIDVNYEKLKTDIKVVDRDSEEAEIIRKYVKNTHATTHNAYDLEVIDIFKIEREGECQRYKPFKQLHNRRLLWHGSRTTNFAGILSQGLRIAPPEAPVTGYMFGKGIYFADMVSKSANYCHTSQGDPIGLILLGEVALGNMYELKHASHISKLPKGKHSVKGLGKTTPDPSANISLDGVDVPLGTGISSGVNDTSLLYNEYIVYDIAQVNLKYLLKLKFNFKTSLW

On PARP, `CNC(=O)c1ccc(N2CCN(Cc3cnc4c(c3)[nH]c(=O)n3cccc43)CC2)cc1` [Example 3, N-methyl-4-(4-((6-oxo-5,6-dihydropyrido[2,3-e]pyrrolo[1,2-c]pyrimidin-3-yl)methyl)piperazin-1-yl)benzamide] showed an IC50 of no more than 10 nM. Moreover, the PF50 in the assay with Jurkat cell line is greater than 24000.
As to `CCNC(=O)c1ccc(N2CCN(Cc3cnc4c(c3)[nH]c(=O)n3cccc43)CC2)c(C)c1` [Example 8, N-ethyl-3-methyl-4-(4-((6-oxo-5,6-dihydropyrido[2,3-e]pyrrolo[1,2-c]pyrimidin-3-yl)methyl)piperazin-1-yl)benzamide], the IC50 against PARP was no more than 10 nM. Besides, the PF50 in the assay with Jurkat cell line is on record as greater than 1600.
For `CNC(=O)c1ccc(N2CCN(Cc3cnc4c(c3)[nH]c(=O)n3cccc43)CC2)c(C)c1` [Example 7, N,3-dimethyl-4-(4-((6-oxo-5,6-dihydropyrido[2,3-e]pyrrolo[1,2-c]pyrimidin-3-yl)methyl)piperazin-1-yl)benzamide], on PARP, the IC50 is no more than 10 nM. Besides, the PF50 with Jurkat cell line was greater than 900.
Turning to `CNC(=O)c1ccc(N2CCN(Cc3cnc4c(c3)[nH]c(=O)n3cccc43)CC2)c(F)c1` [Example 9, 3-fluoro-N-methyl-4-(4-((6-oxo-5,6-dihydropyrido[2,3-e]pyrrolo[1,2-c]pyrimidin-3-yl)methyl)piperazin-1-yl)benzamide], the IC50 against PARP was no more than 10 nM. In addition, in the assay with Jurkat cell line, the PF50 is recorded as greater than 16.
On to `O=C(NC1CC1)c1ccc(N2CCN(Cc3cnc4c(c3)[nH]c(=O)n3cccc43)CC2)cc1` [Example 4, N-cyclopropyl-4-(4-((6-oxo-5,6-dihydropyrido[2,3-e]pyrrolo[1,2-c]pyrimidin-3-yl)methyl)piperazin-1-yl)benzamide], for which the IC50 against PARP was no more than 10 nM. Moreover, the PF50 with Jurkat cell line is listed as greater than 1000.
For `CCNC(=O)c1ccc(N2CCN(Cc3cnc4c(c3)[nH]c(=O)n3cccc43)CC2)cc1` [Example 2, N-ethyl-4-(4-((6-oxo-5,6-dihydropyrido[2,3-e]pyrrolo[1,2-c]pyrimidin-3-yl)methyl)piperazin-1-yl)benzamide], the IC50 at PARP was no more than 10 nM. In addition, the PF50 with Jurkat cell line is greater than 1000.
The compound `CCNC(=O)c1ccc(N2CCN(Cc3cnc4c(c3)[nH]c(=O)n3cccc43)CC2)c(F)c1` [Example 10, N-ethyl-3-fluoro-4-(4-((6-oxo-5,6-dihydropyrido[2,3-e]pyrrolo[1,2-c]pyrimidin-3-yl)methyl)piperazin-1-yl)benzamide] showed an IC50 against PARP of no more than 10 nM. The PF50 in the assay with Jurkat cell line was greater than 60.
As for `CNC(=O)c1ccc(N2CCN(Cc3cnc4c(c3)[nH]c(=O)n3cccc43)CC2)c(Cl)c1` [Example 5, 3-chloro-N-methyl-4-(4-((6-oxo-5,6-dihydropyrido[2,3-e]pyrrolo[1,2-c]pyrimidin-3-yl)methyl)piperazin-1-yl)benzamide], the IC50 against PARP was no more than 10 nM. Besides, in the assay on Jurkat cell line, the PF50 is greater than 63.
`CCNC(=O)c1ccc(N2CCN(Cc3cnc4c(c3)[nH]c(=O)n3cccc43)CC2)c(Cl)c1` [Example 6, 3-chloro-N-ethyl-4-(4-((6-oxo-5,6-dihydropyrido[2,3-e]pyrrolo[1,2-c]pyrimidin-3-yl)methyl)piperazin-1-yl)benzamide] showed an IC50 on PARP of no more than 10 nM. Moreover, in the assay with Jurkat cell line, the PF50 is reported as greater than 1000.
